Paper PMC7472354, “Enhanced Antimicrobial Activity of N-Terminal Derivatives of a Novel Brevinin-1 Peptide from The Skin Secretion of Odorrana schmackeri” (Toxins, 2020)
In brackets after ≈: the same amount, converted by molar mass. Like-named read-outs stand apart in the source and are kept apart here. Where a SMILES comes first, the peptide text is derived from it. Bridges are numbered along the chain shown (N, C = ends).

Columns and labels:
[1] = test system: Candida albicans (NCPF 1467); type: cell-based; settings: for MBC: NCPF 1467, 18 h; for MIC: NCPF 1467, 24 h
Method: (§1) The minimal inhibitory concentrations (MICs) and minimum bactericidal concentrations (MBCs) were evaluated to determine the antimicrobial activity of synthetic peptides. The microorganisms employed in the study are two kinds of Gram-negative bacteria, Escherichia coli (NCTC 10418) and Pseudomonas aeruginosa (ATCC 27853), three kinds of Gram-positive bacteria, Staphylococcus aureus (NCTC 10788), Methicillin-resistant Staphylococcus aureus (MRSA, ATCC 12493) and Enterococcus faecalis (NCTC 12697) and a yeast, Candida albicans (NCPF 1467), as indicated previously. […] The sterilised broth medium was used as the positive control and the microorganism cultured in the medium only was treated as the negative control. […] The MBC results were defined as the lowest bactericidal concentrations of peptide. The antimicrobial activity of peptides was tested by monitoring the absorbance at 550 nm using an ELISA plate reader (Biolise BioTek EL808, Winooski, VT, USA).

[2] = test system: Enterococcus faecalis (NCTC 12697); type: cell-based; settings: for MBC: NCTC 12697, 18 h; for MIC: NCTC 12697, 24 h
Method: as §1

[3] = test system: Escherichia coli (NCTC 10418); type: cell-based; settings: for MBC: NCTC 10418, 18 h; for MIC: NCTC 10418, 24 h
Method: as §1

[4] = test system: Methicillin-resistant Staphylococcus aureus (MRSA, ATCC 12493); type: cell-based; settings: for MBC: ATCC 12493, 18 h; for MIC: ATCC 12493, 24 h
Method: as §1

[5] = test system: Pseudomonas aeruginosa (ATCC 27853); type: cell-based; settings: for MBC: ATCC 27853, 18 h; for MIC: ATCC 27853, 24 h
Method: as §1

[6] = test system: Staphylococcus aureus (NCTC 10788); type: cell-based; settings: for MBC: NCTC 10788, 18 h; for MIC: NCTC 10788, 24 h
Method: as §1

[7] = test system: MRSA (ATCC 12493) biofilm; type: cell-based, Staphylococcus aureus
Method: (§2) The anti-biofilm effects of all synthetic peptides were evaluated, which was described in our previous study. The organisms, including S. aureus (NCTC 10788), E. coli (NCTC 10418), MRSA (ATCC 12493), E. faecalis (NCTC 12697) and P. aeruginosa (ATCC 27853), were investigated in this study. Gram-positive bacteria were cultured in the TSB broth and Gram-negative bacteria were cultured in the LB broth. The anti-biofilm effects were determined based on the MBIC and MBEC of all the peptides. For the determination of MBIC, 5 × 10^5 CFU/mL bacterial cultures were incubated with the peptides concentrations (ranging from 1 µM to 512 µM) for 24 h. The sterilised medium and bacterial suspension without any treatment were used as the negative controls and positive controls, respectively. After incubation, wells were rinsed, fixed, stained, washed and dissolved with phosphate buffer saline (PBS), methanol (90%, v/v), crystal violet (0.1%, w/v), sterile deionised water and acetic acid (30%, v/v), respectively. The absorbance of dissolved stain was measured at a 595 nm using a Synergy HT plate reader (Biotech, Minneapolis, MN, USA).
(§3) For the MBEC assay, the peptide concentrations were prepared as above. The bacteria were cultured in the 96 well plate for 24–48 h, which allowed the formation of mature biofilm in the plate. Then, the bacterial culture was removed from the plate. The biofilm was further washed to remove the planktonic bacteria using PBS. Then, the fresh broth that contained different peptide concentrations was added in the plate for incubation of 24 h at 37 °C. After incubation, the plate was stained by crystal violet as mentioned above. The definition of MBIC can be given when compared to the negative control group (≥90%, MBIC90; ≥50%, MBIC50). The definition of the MBEC can be given when compared to the negative control group (≥90%, MBEC90; ≥50%, MBEC50).

[8] = test system: S. aureus (NCTC 10788) biofilm; type: cell-based, Staphylococcus aureus
Method: as §2, §3

[9] = test system: E. faecalis (NCTC 12697) biofilm; type: cell-based, Enterococcus faecalis
Method: as §2, §3

[10] = test system: E. coli (NCTC 10418) biofilm; type: cell-based, Escherichia coli
Method: as §2, §3

[11] = test system: P. aeruginosa (ATCC 27853) biofilm; type: cell-based, Pseudomonas aeruginosa
Method: as §2, §3

MRSA = type: cell-based, Staphylococcus aureus; settings: 24 h
Method: (§4) The minimal inhibitory concentrations (MICs) and minimum bactericidal concentrations (MBCs) were evaluated to determine the antimicrobial activity of synthetic peptides. The microorganisms employed in the study are two kinds of Gram-negative bacteria, Escherichia coli (NCTC 10418) and Pseudomonas aeruginosa (ATCC 27853), three kinds of Gram-positive bacteria, Staphylococcus aureus (NCTC 10788), Methicillin-resistant Staphylococcus aureus (MRSA, ATCC 12493) and Enterococcus faecalis (NCTC 12697) and a yeast, Candida albicans (NCPF 1467), as indicated previously. For antimicrobial assays, 5 × 10^5 CFU/mL of bacterial suspensions were incubated with the concentrations of the peptides (ranging from 1 µM to 512 µM) for 24 h at 37 °C. The sterilised broth medium was used as the positive control and the microorganism cultured in the medium only was treated as the negative control. […] The MBC results were defined as the lowest bactericidal concentrations of peptide. The antimicrobial activity of peptides was tested by monitoring the absorbance at 550 nm using an ELISA plate reader (Biolise BioTek EL808, Winooski, VT, USA).
(§5) The activity of peptides in the different environmental conditions including different concentrations of NaCl (50, 100 and 150 mM) and MgCl2 (0.5, 1 and 2 mM), pH (6, 7 and 8), temperature (50 °C, 75 °C and 100 °C) and 10% fetal bovine serum (FBS) solution, was evaluated using the broth microdilution assay as described in the antimicrobial activity assay. For the stability test of peptides in the presence of salt, pH and serum, these conditions were adjusted in the fresh medium that was further used to dilute the bacteria suspension. The peptides were also dissolved in such broth and mixed with the bacteria suspension in the 96 well plate. For the thermal stability test, the peptides were dissolved in the water and incubated at different temperature for 15 min before dosing in the plate. The sterilised broth with corresponding conditions was used as the positive controls, and the bacteria suspension without any treatment was used as the negative controls.

S. aureus = type: cell-based, Staphylococcus aureus; settings: 24 h
Method: as §4, §5

E. faecalis = type: cell-based, Enterococcus faecalis; settings: 24 h
Method: as §4, §5

C. albicans = type: cell-based, Candida albicans; settings: 24 h
Method: as §4, §5

E. coli = type: cell-based, Escherichia coli; settings: 24 h
Method: as §4, §5

P. aeruginosa = type: cell-based, Pseudomonas aeruginosa; settings: 24 h
Method: as §4, §5

[12] = test system: Galleria mellonella larvae; test: Toxicity to uninfected Galleria mellonella larvae; type: in vivo; settings: uninfected G. mellonella larvae injected with drug; n = 30 per group; vancomycin 20 mg/kg
Method: The in vivo study of antimicrobial activity of the peptides was evaluated using the larvae of Galleria mellonella, which was described in the previous study with minor modifications. The larvae of Galleria mellonella (250 ± 25 mg; Livefood UK Ltd., Rooks Bridge, UK) were selected. The MRSA culture was prepared the same way as the antimicrobial activity assay. Then, MRSA cells were collected and washed, and further diluted to 10^8 CFU/mL in the saline. Ten µL of MRSA suspension was injected to the larvae and placed in a petri dish. After 2 h, the MRSA infected larvae were administrated with 10 µL of peptides (25 mg/kg, 50 mg/kg) by injection. Saline and vancomycin (20 mg/kg) (Sigma-Aldrich, UK) were used as the negative control and positive control, respectively. Each sample group contained 10 larvae, and the experiment was repeated three times (30 larvae for each group in total). The survival curves were achieved using Prism (Version 6.0; GraphPad Software Inc., San Diego, CA, USA) and the log-rank test was employed to analyze the significance between the different treatments and the controls. * (p < 0.05), ** (p < 0.01) and *** (p < 0.001) represent statistical significance.
Figure A9 Larvae without any MRSA infection were injected with peptides and vancomycin respectively to access the cytotoxicity of the drugs to larvae bodies. […] Effect of treatment of G. mellonella larvae (n = 30 for each group) without any infection and only treated with 5 µL vancomycin (20 mg/kg), OSd, OSe and OSf.

CC[C@H](C)[C@H](NC(=O)CNC(=O)[C@@H]1CCCN1C(=O)[C@H](CC(C)C)NC(=O)[C@@H](N)Cc1ccccc1)C(=O)N[C@@H](CC(C)C)C(=O)N[C@@H](CCCCN)C(=O)N[C@H](C(=O)N[C@@H](C)C(=O)N[C@@H](C)C(=O)N[C@@H](CC(N)=O)C(=O)N[C@H](C(=O)N[C@H](C(=O)N1CCC[C@H]1C(=O)NCC(=O)N[C@H](C(=O)N[C@H](C(=O)N[C@H]1CSSC[C@@H](C(=O)O)NC(=O)[C@H](CCCCN)NC(=O)[C@H](CCCCN)NC(=O)[C@H]([C@@H](C)O)NC(=O)[C@H]([C@@H](C)CC)NC(=O)[C@H](C)NC1=O)[C@@H](C)CC)C(C)C)C(C)C)C(C)C)C(C)C [Brevinin-1OS] (H-FLPGILKVAANVVPGVICAITKKC-OH; disulfide 18-24)
MBC [1]: 64 µM (≈ 157 µg/mL)
MIC [1]: 8 µM (≈ 19.6 µg/mL)
MBC [2]: 16 µM (≈ 39.2 µg/mL)
MIC [2]: 8 µM (≈ 19.6 µg/mL)
MBC [3]: > 512 µM
MIC [3]: 128 µM (≈ 314 µg/mL)
MBC [4]: 32 µM (≈ 78.5 µg/mL)
MIC [4]: 32 µM (≈ 78.5 µg/mL)
MBC [5]: > 512 µM
MIC [5]: 256 µM (≈ 628 µg/mL)
MBC [6]: 16 µM (≈ 39.2 µg/mL)
MIC [6]: 4 µM (≈ 9.81 µg/mL)
MBEC50 [7]: 64 µM
MBEC90 [7]: 256 µM
MBIC50 ([7]; ATCC 12493, 24 h): 8 µM
MBIC90 ([7]; ATCC 12493, 24 h): 32 µM
MBEC50 [8]: 32 µM
MBEC90 [8]: 64 µM
MBIC50 ([8]; NCTC 10788, 24 h): 4 µM
MBIC90 ([8]; NCTC 10788, 24 h): 4 µM
MBEC50 [9]: 256 µM
MBEC90 [9]: > 512 µM
MBIC50 ([9]; NCTC 12697, 24 h): 32 µM
MBIC90 ([9]; NCTC 12697, 24 h): 64 µM
MBEC50 [10]: > 512 µM
MBEC90 [10]: > 512 µM
MBIC50 ([10]; NCTC 10418, 24 h): 128 µM
MBIC90 ([10]; NCTC 10418, 24 h): 128 µM
MBEC50 [11]: 512 µM
MBEC90 [11]: 512 µM
MBIC50 ([11]; ATCC 27853, 24 h): 256 µM
MBIC90 ([11]; ATCC 27853, 24 h): 256 µM
MIC (MRSA; pH 6): 64 µM (≈ 157 µg/mL)
MIC (MRSA; pH 7): 8 µM (≈ 19.6 µg/mL)
MIC (MRSA; pH 8): 4 µM (≈ 9.81 µg/mL)
MIC (S. aureus; pH 6): 8 µM (≈ 19.6 µg/mL)
MIC (S. aureus; pH 7): 4 µM (≈ 9.81 µg/mL)
MIC (S. aureus; pH 8): 4 µM (≈ 9.81 µg/mL)
MIC (E. faecalis; pH 6): 128 µM (≈ 314 µg/mL)
MIC (E. faecalis; pH 7): 32 µM (≈ 78.5 µg/mL)
MIC (E. faecalis; pH 8): 16 µM (≈ 39.2 µg/mL)
MIC (C. albicans; pH 6): 64 µM (≈ 157 µg/mL)
MIC (C. albicans; pH 7): 16 µM (≈ 39.2 µg/mL)
MIC (C. albicans; pH 8): 16 µM (≈ 39.2 µg/mL)
MIC (E. coli; pH 6): 32 µM (≈ 78.5 µg/mL)
MIC (E. coli; pH 7): 32 µM (≈ 78.5 µg/mL)
MIC (E. coli; pH 8): 128 µM (≈ 314 µg/mL)
MIC (P. aeruginosa; pH 6): 128 µM (≈ 314 µg/mL)
MIC (P. aeruginosa; pH 7): 256 µM (≈ 628 µg/mL)
MIC (P. aeruginosa; pH 8): 256 µM (≈ 628 µg/mL)

CC[C@H](C)[C@H](NC(=O)[C@@H](NC(=O)CNC(=O)[C@@H]1CCCN1C(=O)[C@@H](NC(=O)[C@@H](NC(=O)[C@H](CC(N)=O)NC(=O)[C@H](C)NC(=O)[C@H](C)NC(=O)[C@@H](NC(=O)[C@H](CCCCN)NC(=O)[C@H](CC(C)C)NC(=O)[C@@H](NC(=O)CNC(=O)[C@@H]1CCCN1C(=O)[C@H](CC(C)C)NC(=O)[C@@H](N)Cc1ccccc1)[C@@H](C)CC)C(C)C)C(C)C)C(C)C)C(C)C)C(=O)O [OSa] (H-FLPGILKVAANVVPGVI-OH)
MBC [1]: > 512 µM
MIC [1]: > 512 µM
MBC [2]: > 512 µM
MIC [2]: > 512 µM
MBC [3]: > 512 µM
MIC [3]: > 512 µM
MBC [4]: > 512 µM
MIC [4]: > 512 µM
MBC [5]: > 512 µM
MIC [5]: > 512 µM
MBC [6]: > 512 µM
MIC [6]: > 512 µM

CN[C@H](CC(C)C)C(=O)N[C@H]1C(=O)N[C@@H](CC(N)=O)C(=O)N[C@H]2C(=O)N[C@H]3C(=O)N[C@H](C(=O)N[C@H](C(=O)O)c4cc(O)cc(O)c4-c4cc3ccc4O)[C@H](O)c3ccc(c(Cl)c3)Oc3cc2cc(c3O[C@@H]2O[C@H](CO)[C@@H](O)[C@H](O)[C@H]2O[C@H]2C[C@](C)(N)[C@H](O)[C@H](C)O2)Oc2ccc(cc2Cl)[C@H]1O [vancomycin, reference compound]
toxicity to larvae without MRSA infection [12]: No noticeable cytotoxicity
